Measured values from patent US8377468B2, “Dry wound dressing and drug delivery system” (Rexaderm, Inc., priority 2006, dated 2013).

Test system: diabetic leg ulcer
Assay: Case report: treatment of a diabetic leg ulcer
Assay type: in vivo, human
Excerpt: FIG. 1-6 are a series of 6 pictures taken sequentially after treatment of a leg ulcer, which had persisted for over 6 months without healing, using the dry dressing described herein that contained human cellular fibronectin (cFN).
The cFN dressing was held on with either a 4×4 sponge and tape or with a BAND-AID™ (adhesive bandage).
A few months after the lesion occurred, a dermatologist obtained a biopsy sample, and the ulcer became infected, resulting in a larger lesion that was greatly inflamed. The lesion was treated with Avelox™. It appeared to heal in a few months, when the patient removed what appeared to be dead skin. The lesion opened again, and the patient treated it with Neosporin, Iodine, and Merthiolate. The dermatologist took a swab of the lesion. After the patient used the Bactro-Ban (Muciprocin) recommended by the dermatologist for two weeks, the wound became worse so the patient sealed it with Merthiolate. A bleeding lesion the size of a nickel persisted. The patient began treatment with cFN wound dressing of Example 2 about two weeks later, changing the dressing every 48 hours except for the first day. (The first change was at 24 hours). For the first 4 days, the material was fixed to the wound with a 4×4 gauze pad and an ACE bandage, then with a Band-Aid. […]

Q: How did the lesion size (FIG. 1, after wound was treated for two weeks) turn out when `C/C(=C\C(=O)OCCCCCCCCC(=O)O)C[C@@H]1OC[C@H](C[C@@H]2O[C@H]2[C@@H](C)[C@H](C)O)[C@@H](O)[C@H]1O` [Bactro-Ban, Muciprocin] was run?
A: 12-15 mm

Q: What about the wound outcome (used for two weeks) of the same molecule?
A: became worse
